# Laboratory results as given in ChEMBL document CHEMBL4706535, “The development of Coronavirus 3C-Like protease (3CL) inhibitors from 2010 to 2020” (Eur J Med Chem, 2020).
# Test system: SARS-CoV-2
# Assay: microbe, parasite or virus in culture
# Settings: Severe acute respiratory syndrome coronavirus 2, nCoV-2019 BetaCoV/Wuhan/WIV04/2019, Vero C1008
smiles,measurement,value
O=C[C@H](C[C@@H]1CCNC1=O)NC(=O)[C@H](Cc1cccc(F)c1)NC(=O)c1cc2ccccc2[nH]1,EC50,720 nM
